Assay results reported in ChEMBL document CHEMBL1158978, “Antimicrobial N-methylpyridinium salts related to the xestamines from the Caribbean sponge Calyx podatypa” (1991).
Structures can show the parent of a compound that is named as a salt.

Legend:
Assay type in all cases: functional
Settings in all cases: read-out: IZ
Candida albicans = experiment: Antimicrobial activity against Candida albicans at 10 ug/ml by standard disk assay
Bacillus subtilis = experiment: Antimicrobial activity against Bacillus subtilis at 5 ug/ml by standard disk assay
Staphylococcus aureus = experiment: Antimicrobial activity against Staphylococcus aureus at 5 ug/ml by standard disk assay

## CON(C)CCCCCCCCCC/C=C\C#CCCCCc1ccc[n+](C)c1 [XESTAMINE F IODIDE SALT]
Candida albicans
  zone of inhibition at 10 µg/mL: 10 mm
Bacillus subtilis
  zone of inhibition at 5 µg/mL: 8 mm
Staphylococcus aureus
  zone of inhibition at 5 µg/mL: 9 mm
